# Measurements: patent US20210179680A1, “POLYPEPTIDE, DERIVATIVES THEREOF, AND APPLICATION THEREOF IN PREPARATION OF DRUGS HAVING RESISTANCE TO PULMONARY FIBROSIS” (priority 2016, published 2021)
# Bridge positions count the residues as written; N and C are the ends. Square brackets hold non-standard residues; d marks the D form. Peptide text beside a SMILES is read from it. S5 = C=CCCC[C@](C)(N)C(=O)O
# How the values were obtained:
# Type in all cases: in vivo, C57BL/6 mice
# [1] = tested on: mice with bleomycin-induced pulmonary fibrosis; test: Survival rate of mice with bleomycin-induced pulmonary fibrosis; conditions: twice a week
# Procedure: (§1) Male C57BL/6 mice were fasted overnight, then anesthetized with 45 mg/kg sodium pentobarbital by injection intraperitoneally (i.p.), and intratracheally injected with bleomycin at a dose of 3 U/kg. The specific operation steps are as follows: cut the neck skin of the mouse with as little trauma as possible, expose the trachea with the assistance of elbow ophthalmic forceps, puncture the trachea and inject about 50 μL of bleomycin into the trachea with a microsyringe, rotate the mouse quickly and stand it upright for 5 minutes in order to make bleomycin evenly enter the left and right lobe, thereby constructing an animal model. The whole operation was performed at a surgical table at about […]. Mice in the sham operation group were intratracheally injected with an equal amount of physiological saline for injection.
# The animal model with pulmonary fibrosis was prepared according to the method described in Example 2. The peptide therapy was started from the 10th day after modeling (the treatment groups are shown in Table 3), and the time was calculated from the 10th day after modeling to count the mortality rate. The death situation of each group of experimental animals was counted and calculated daily. […] The survival rate is the percentage of the number of mice that survived accounting for the number of mice in the whole group. Results are shown in FIG. 6-1, FIG. 6-2 and Table 4. […] In FIG. 6-1 and FIG. 6-2, “##” represents that P value is less than 0.01 when the survival rate of administration group was compared with that of the sham operation group; “*” represents that P value is less than 0.05 when the survival rate of administration group was compared with that of the bleomycin group; “**” represents that P value is less than 0.01 when the survival rate of administration group was compared with that of bleomycin group; and “i.p.” refers to intraperitoneal injection.
# The animal model of pulmonary fibrosis was prepared according to the method described in Example 2. The polypeptide treatment was started from the 10th day after modeling (the treatment groups are shown in Table 9), and the time was calculated from the 10th day after modeling to count the mortality rate. The mortality rate of each group of experimental animals was recorded and calculated daily. If none of the animals in a group died, the survival rate of the group is 100%. If all the animals in a group died, the survival rate is 0%. […] In FIG. 12, “##” represents that P value is less than 0.01 when the survival rate of the administration groups were compared with that of the sham operation group; “*” represents that P value is less than 0.05 and “**” represents that P value is less than 0.01 when the survival rate of the administration groups were compared with bleomycin group.
# [2] = tested on: mice with bleomycin-induced pulmonary fibrosis; test: Lung weight index in mice with pulmonary fibrosis; conditions: 2 mg/kg i.p., after 28 days, lung weight (mg) divided by body weight (g)
# Procedure: as §1
# Pulmonary fibrosis model was prepared according to the method described in Example 2, and administered in groups according to Table 3. After 28 days, the lungs of the mice were finely stripped and weighed, and a lung weight index was obtained from dividing the lung weight (mg) by the body weight (g) of the mice. […] In FIG. 7, “##” represents that P value is less than 0.01 when the lung weight index of administration group was compared with that of the sham operation group; “*” represents that P value is less than 0.05 when the lung weight index of administration group was compared with that of the bleomycin group; “**” represents that P value is less than 0.01 when the lung weight index of administration group was compared with that of bleomycin group.
# Pulmonary fibrosis models were made according to the method described in Example 2 and administered in groups according to Table 9. After 28 days, the lungs of the mice were finely stripped and weighed, and the lung weight (mg) was divided by the body weight (g) of the mice to obtain a lung weight index. […] In FIG. 13, “##” represents that P value is less than 0.01 when the lung weight index of the administration groups were compared with that of the sham operation group; “*” represents that P value is less than 0.05 and “**” represents that P value is less than 0.01 when the lung weight index of the administration groups were compared with bleomycin group.
# [3] = tested on: mice with bleomycin-induced pulmonary fibrosis; test: Hydroxyproline content in lung of mice with pulmonary fibrosis; conditions: 2 mg/kg i.p.; for hydroxyproline content (μg/mg protein): left lung lobes, chloramine-T method
# Procedure: as §1
# (§2) Hydroxyproline accounts for 13.4% (w/w) of collagen, and extremely small amount of elastin, while it is absent in other proteins. […] Pulmonary fibrosis models were prepared according to the method described in Example 2 and administered in groups according to Table 3. The content of hydroxyproline in the lobes of left lung of the animals was measured 28 days later, and the condition of pulmonary fibrosis was evaluated.
# The specific method is as follows: the mice in the animal model prepared in Example 2 was feed in a SPF animal room and treated with polypeptide according to the dosing schedule of Table 3, and all left lobes of lung of the experimental animal was taken on the 21st day after the animal model was constructed and the wet weight was recorded. Then 10% (w/w) tissue homogenate was prepared by ultrasonic homogenization using physiological saline. About 150 μL of homogenate supernatant was taken, and 500 μL of alkali hydrolysate was added (provided by Hydroxyproline alkaline hydrolysis kit of Nanjing Jiancheng Bioengineering Technology Co., Ltd.). After vortex mixing, the mixture was treated with alkaline hydrolysis for 40 min under conditions of 120° C., 0.1 Kpa. After adjusting the pH value, the volume was held constant, and the supernatant was taken after performing activated carbon treatment. The hydroxyproline was determined according to the chloramine-T method (the method of the present example refers to the instruction provided with kit, which was purchased from Nanjing Jiancheng Bioengineering Technology Co., Ltd.). […] In FIG. 10, “##” represents that P value is less than 0.01 when comparing the content of hydroxyproline in the administration group with that in the sham operation group; and “*” represents that P value is less than 0.05 and“**” represents that P value is less than 0.01 when comparing the content of hydroxyproline in the administration group with that in bleomycin group.
# as §2, with “collagen, and accounts for extremely small” for “collagen, and extremely small”, “in the all lobes of” for “in the lobes of”
# The specific method is as follows: the mice in the animal model prepared in Example 2 was feed in an SPF animal room and treated with polypeptide according to the dosing schedule of Table 3, and all the left lobes of lung of the experimental animal was taken on the 21st day after the animal model was constructed and the wet weight was recorded. Then 10% (w/w) tissue homogenate was prepared by ultrasonic homogenization using physiological saline. About 150 μL of homogenate supernatant was taken, and 500 μL of alkali hydrolysate was added (provided by Hydroxyproline alkaline hydrolysis kit of Nanjing Jiancheng Bioengineering Technology Co., Ltd.). After vortex mixing, the mixture was treated with alkaline hydrolysis for 40 min under conditions of 120° C., 0.1 Kpa. […]
# [4] = Table 3 groups: 2 mg/kg i.p., 10th to 28th day after modeling
# [5] = Table 9 groups (S19-S21): 2 mg/kg i.p.
compound,measurement,setting,value
"CC(C)C[C@H](NC(=O)[C@H](CCCCN)NC(=O)[C@H](CCCCN)NC(=O)[C@H](C)NC(=O)[C@H](CS)NC(=O)[C@]1(C)CCCC=CCCC[C@](C)(NC(=O)[C@H](CC(C)C)NC(=O)[C@@H](N)Cc2c[nH]cn2)C(=O)N[C@@H](C)C(=O)N[C@@H](CS)C(=O)N[C@@H](Cc2ccccc2)C(=O)N1)C(=O)N[C@@H](CCCCN)C(=O)N[C@@H](CCCCN)C(=O)N[C@@H](CCCNC(=N)N)C(=O)O [S3, His-Leu-S5-Ala-Cys-Phe-S5-Cys-Ala-Lys-Lys-Leu-Lys-Lys-Arg] (H-HL[S5]ACF[S5]CAKKLKKR-OH; staple 3-7; N-terminus and C-terminus assumed)",Survival rate (%) 7 days,[1]; [4],100%
same,Survival rate (%) 14 days,[1]; [4],93.33%
same,Survival rate (%) 21 days,[1]; [4],86.67%
same,Survival rate (%) 28 days,[1]; [4],86.67%
same,Lung weight index,[2]; Table 3 groups,8.8
same,hydroxyproline content (μg/mg protein),[3]; Table 3 groups,0.8287 μg/mg protein
"CSCC[C@H](NC(=O)[C@H](CC(C)C)NC(=O)[C@@H](N)Cc1c[nH]cn1)C(=O)N[C@@H](C)C(=O)N[C@@H](CS)C(=O)N[C@@]1(C)CCCC=CCCC[C@@](C)(C(=O)N[C@@H](CCCCN)C(=O)N[C@@H](CC(C)C)C(=O)N[C@@H](CCCCN)C(=O)N[C@@H](CCCCN)C(=O)N[C@@H](CCCNC(=N)N)C(=O)O)NC(=O)[C@H](C)NC(=O)[C@H](CS)NC(=O)[C@H]([C@@H](C)O)NC1=O [S6, His-Leu-Met-Ala-Cys-S5-Thr-Cys-Ala-S5-Lys-Leu-Lys-Lys-Arg] (H-HLMAC[S5]TCA[S5]KLKKR-OH; staple 6-10; N-terminus and C-terminus assumed)",Survival rate (%) 7 days,[1]; [4],100%
same,Survival rate (%) 14 days,[1]; [4],86.67%
same,Survival rate (%) 21 days,[1]; [4],80%
same,Survival rate (%) 28 days,[1]; [4],80%
same,Lung weight index,[2]; Table 3 groups,9.725
same,hydroxyproline content (μg/mg protein),[3]; Table 3 groups,0.8337 μg/mg protein
"CSCC[C@H](NC(=O)[C@H](CC(C)C)NC(=O)[C@@H](N)Cc1c[nH]cn1)C(=O)N[C@@H](C)C(=O)N[C@@H](CS)C(=O)N[C@@H](Cc1ccccc1)C(=O)N[C@H](C(=O)N[C@@H](CS)C(=O)N[C@@H](C)C(=O)N[C@@H](CCCCN)C(=O)N[C@@]1(C)CCCC=CCCC[C@@](C)(C(=O)O)NC(=O)[C@H](CCCCN)NC(=O)[C@H](CCCCN)NC(=O)[C@H](CC(C)C)NC1=O)[C@@H](C)O [S11, His-Leu-Met-Ala-Cys-Phe-Thr-Cys-Ala-Lys-S5-Leu-Lys-Lys-S5] (H-HLMACFTCAK[S5]LKK[S5]-OH; staple 11-15; N-terminus and C-terminus assumed)",Survival rate (%) 7 days,[1]; [4],100%
same,Survival rate (%) 14 days,[1]; [4],93.33%
same,Survival rate (%) 21 days,[1]; [4],86.67%
same,Survival rate (%) 28 days,[1]; [4],86.67%
same,Lung weight index,[2]; Table 3 groups,9.2875
same,hydroxyproline content (μg/mg protein),[3]; Table 3 groups,0.7725 μg/mg protein
"CSCC[C@@H]1NC(=O)[C@@](C)(NC(=O)[C@@H](N)Cc2c[nH]cn2)CCCC=CCCC[C@@](C)(C(=O)N[C@H](C(=O)N[C@@H](CS)C(=O)N[C@@H](C)C(=O)N[C@@H](CCCCN)C(=O)N[C@@H](CCCCN)C(=O)N[C@@H](CC(C)C)C(=O)N[C@@H](CCCCN)C(=O)N[C@@H](CCCCN)C(=O)N[C@@H](CCCNC(=N)N)C(=O)O)[C@@H](C)O)NC(=O)[C@H](CS)NC(=O)[C@H](C)NC1=O [S2, His-S5-Met-Ala-Cys-S5-Thr-Cys-Ala-Lys-Lys-Leu-Lys-Lys-Arg] (H-H[S5]MAC[S5]TCAKKLKKR-OH; staple 2-6; N-terminus and C-terminus assumed)",Survival rate (%) 7 days,[1]; [4],100%
same,Survival rate (%) 14 days,[1]; [4],100%
same,Survival rate (%) 21 days,[1]; [4],80%
same,Survival rate (%) 28 days,[1]; [4],80%
same,Lung weight index,[2]; Table 3 groups,9.35
same,hydroxyproline content (μg/mg protein),[3]; Table 3 groups,0.7063 μg/mg protein
"S21: chimeric polypeptide Antp-MR2, amino acid sequence SEQ ID NO: 21 (RQIKIWFQNRRMKWKKGGHLMACFTCAKKLKKR; chimeric polypeptide Antp-MR2 S21)",Survival rate (%) 7 days,"[1]; Table 9 groups (S19-S21): 2 mg/kg i.p., 10th to 28th day after modeling",100%
same,Survival rate (%) 14 days,[1]; [5],100%
same,Survival rate (%) 21 days,[1]; [5],75%
same,Survival rate (%) 28 days,[1]; [5],75%
same,Lung weight index,[2]; Table 9 groups,11.2125
same,hydroxyproline content (μg/mg protein),[3]; S19-S21 groups,0.7488 μg/mg protein
same,content of hydroxyproline in the lungs (in words),"[3]; S19-S21 groups, versus bleomycin group",reduce hydroxyproline content
"CSCC[C@H](NC(=O)[C@H](CC(C)C)NC(=O)[C@@H](N)Cc1c[nH]cn1)C(=O)N[C@@H](C)C(=O)N[C@@]1(C)CCCC=CCCC[C@@](C)(C(=O)N[C@@H](CCCCN)C(=O)N[C@@H](CCCCN)C(=O)N[C@@H](CC(C)C)C(=O)N[C@@H](CCCCN)C(=O)N[C@@H](CCCCN)C(=O)N[C@@H](CCCNC(=N)N)C(=O)O)NC(=O)[C@H](CS)NC(=O)[C@H]([C@@H](C)O)NC(=O)[C@H](Cc2ccccc2)NC1=O [S5, His-Leu-Met-Ala-S5-Phe-Thr-Cys-S5-Lys-Lys-Leu-Lys-Lys-Arg] (H-HLMA[S5]FTC[S5]KKLKKR-OH; staple 5-9; N-terminus and C-terminus assumed)",Survival rate (%) 7 days,[1]; [4],100%
same,Survival rate (%) 14 days,[1]; [4],100%
same,Survival rate (%) 21 days,[1]; [4],93.33%
same,Survival rate (%) 28 days,[1]; [4],93.33%
same,Lung weight index,[2]; Table 3 groups,8.575
same,hydroxyproline content (μg/mg protein),[3]; Table 3 groups,0.6575 μg/mg protein
